According to ChEMBL document CHEMBL5126667, “Tigliane-Type Diterpene Esters from the Fruits of Shirakiopsis indica and Their Anti-HIV Activity” (J Nat Prod, 2022):

Columns and labels:
[1] = Therapeutic index, ratio of cytotoxicity against human MT4 cells to antiviral activity against HIV NL4-3; type: toxicity, cell-based; settings: read-out: TI
[2] = system: Human immunodeficiency virus; assay: Antiviral activity against HIV NL4-3 infected in MT-4 cells assessed as viral replication measured after 4 days by p24-ELISA; type: functional, organism-based; settings: Human immunodeficiency virus 1, NL4-3, MT4, 96 h

| Structure (SMILES) | selectivity ratio [1] | EC50 [2] [nM] |
| --- | --- | --- |
| CNc1ccccc1C(=O)O[C@@H]1[C@@H](C)[C@@]2(O)[C@@H](C=C(CO)C[C@]3(O)C(=O)C(C)=C[C@@H]23)[C@@H]2C(C)(C)[C@]12OC(C)=O | 5290 | 44 |
| CCC/C=C/C=C/C=C\C(=O)O[C@@H]1[C@@H](C)[C@]2(O)[C@@H]3C=C(C)C(=O)[C@H]3CC(CO)=C[C@H]2[C@@H]2C(C)(C)[C@]12OC(C)=O | 161 | 130 |
| CNc1ccccc1C(=O)O[C@@H]1[C@@H](C)[C@]2(O)[C@@H]3C=C(C)C(=O)[C@H]3CC(CO)=C[C@H]2[C@@H]2C(C)(C)[C@]12OC(C)=O [SAPINTOXIN A] | 1100 | 7.4 |
| Cc1cn([C@H]2C[C@H](N=[N+]=[N-])[C@@H](CO)O2)c(=O)[nH]c1=O [ZIDOVUDINE] | > 22 | 20 |
